Values of other authors, collected in patent publication US11441198B2 (priority 2016, dated 2022).

Tests used:
[1] = tested on: influenza virus; details: double-blind randomized placebo-controlled trial
[2] = tested on: influenza viruses

| SMILES | symptoms [1] | antiviral activity against influenza viruses [2] |
| --- | --- | --- |
| CC(=O)Oc1ccccc1C(=O)Nc1ncc([N+](=O)[O-])s1 [Nitazoxanide] | associated with improvement in symptoms | – |
| COc1c(C)c2c(c(O)c1C/C=C(\C)CCC(=O)O)C(=O)OC2 [mycophenolic acid] | – | has antiviral activity |
